Data taken from ChEMBL document CHEMBL1201862, “PubChem BioAssay data set” (2004).
The source made the active and inactive calls.

Assays:
[1] = target: T1, Microphthalmia-associated transcription factor (Homo sapiens, UniProt O75030); assay: reducers of TRPM1 reporter luminescence, concentration series – cell-based, SK-MEL-5, cherry-picked, set 3, MITF inhibitor project, dose response (AID 493073); type: functional;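 note: SK-MEL-5 melanoma cells with luciferase driven by the MITF target TRPM1 promoter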
T1 sequence (O75030 whole entry): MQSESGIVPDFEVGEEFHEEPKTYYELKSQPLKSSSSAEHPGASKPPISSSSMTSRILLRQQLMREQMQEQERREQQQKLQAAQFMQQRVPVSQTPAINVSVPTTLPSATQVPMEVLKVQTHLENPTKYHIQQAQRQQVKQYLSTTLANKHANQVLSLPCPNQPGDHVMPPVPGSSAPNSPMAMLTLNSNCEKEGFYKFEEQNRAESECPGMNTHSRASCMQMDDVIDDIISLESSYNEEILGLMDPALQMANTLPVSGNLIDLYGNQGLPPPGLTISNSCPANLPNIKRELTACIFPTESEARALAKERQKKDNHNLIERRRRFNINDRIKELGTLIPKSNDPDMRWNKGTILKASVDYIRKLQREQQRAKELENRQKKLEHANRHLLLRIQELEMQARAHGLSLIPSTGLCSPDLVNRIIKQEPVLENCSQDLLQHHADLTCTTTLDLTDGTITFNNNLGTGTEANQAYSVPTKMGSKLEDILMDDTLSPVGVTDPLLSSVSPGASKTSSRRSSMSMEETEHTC

[2] = THP-1 cell cytotoxicity, dose response, cytotoxicity control for non-replicating M. tuberculosis project (AID 489025); type: functional
cells = type: functional
[3] = HepG2 cell cytotoxicity, dose response, cytotoxicity control for non-replicating M. tuberculosis project (AID 489018); type: functional; details: Mycobacterium tuberculosis
[4] = Vero E6 cell cytotoxicity, dose response, cytotoxicity control for non-replicating M. tuberculosis project, secondary assay (AID 492998); type: functional, VeroE6; details: Vero C1008
HEK293 [5] = assay: NOD2 signaling inhibitors in MDP-stimulated cells, cell-based, uHTS, luminescence (AID 2001); type: functional; details: Homo sapiens
HEK293 [6] = assay: cells; type: functional, cell-based; details: Homo sapiens
HEK293 [7] = assay: inhibition of NOD1-driven NF-kB reporter – cell-based, luminescence, uHTS, primary screen (AID 1578); type: functional; details: Homo sapiens
HEK293 [8] = assay: cells; type: functional, cell-based; details: Homo sapiens; remark: listed apart in the source
[9] = target: Nucleotide-binding oligomerization domain-containing protein 2 (Homo sapiens, UniProt Q9HC29); assay: inhibition of NOD2-driven NF-kB reporter – cell-based, luminescence, uHTS, HEK293 (AID 1566); type: functional
Nucleotide-binding oligomerization domain-containing protein 2, sequence (Q9HC29 whole entry, the tested form may be a part): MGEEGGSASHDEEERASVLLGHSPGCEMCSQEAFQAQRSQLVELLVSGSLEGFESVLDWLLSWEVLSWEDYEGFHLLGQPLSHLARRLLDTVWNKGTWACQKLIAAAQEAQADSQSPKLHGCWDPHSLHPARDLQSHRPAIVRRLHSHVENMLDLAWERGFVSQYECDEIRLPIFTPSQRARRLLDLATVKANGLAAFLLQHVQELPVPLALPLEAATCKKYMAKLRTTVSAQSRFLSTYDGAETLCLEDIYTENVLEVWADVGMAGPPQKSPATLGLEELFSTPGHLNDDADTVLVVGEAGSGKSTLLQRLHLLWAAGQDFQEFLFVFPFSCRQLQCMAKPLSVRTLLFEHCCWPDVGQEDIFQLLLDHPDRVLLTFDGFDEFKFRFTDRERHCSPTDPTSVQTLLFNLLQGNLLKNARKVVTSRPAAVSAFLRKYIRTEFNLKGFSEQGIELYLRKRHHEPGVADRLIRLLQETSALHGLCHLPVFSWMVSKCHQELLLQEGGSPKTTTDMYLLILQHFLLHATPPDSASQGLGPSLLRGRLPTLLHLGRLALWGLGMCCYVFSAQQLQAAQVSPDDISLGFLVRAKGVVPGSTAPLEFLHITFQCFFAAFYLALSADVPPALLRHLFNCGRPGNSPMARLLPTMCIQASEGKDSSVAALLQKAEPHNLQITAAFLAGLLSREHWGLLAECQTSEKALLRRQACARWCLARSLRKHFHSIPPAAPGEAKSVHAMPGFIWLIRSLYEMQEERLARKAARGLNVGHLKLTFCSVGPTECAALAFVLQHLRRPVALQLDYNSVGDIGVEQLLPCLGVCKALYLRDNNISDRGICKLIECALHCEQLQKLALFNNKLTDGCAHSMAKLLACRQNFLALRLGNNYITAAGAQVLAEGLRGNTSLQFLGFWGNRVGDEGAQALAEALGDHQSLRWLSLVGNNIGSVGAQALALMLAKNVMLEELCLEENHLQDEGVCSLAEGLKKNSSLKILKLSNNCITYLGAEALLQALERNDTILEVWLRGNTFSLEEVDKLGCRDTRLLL

HEK293 [10] = assay: cells; type: functional, cell-based; details: Homo sapiens; remark: listed apart in the source
[11] = target: T2, Calpain-2 catalytic subunit (Sus scrofa, UniProt P43367); assay: m-calpain protease blockers, concentration series – biochemical, fluorogenic peptide substrate, dose response (AID 1420); type: functional
T2 sequence (P43367 whole entry): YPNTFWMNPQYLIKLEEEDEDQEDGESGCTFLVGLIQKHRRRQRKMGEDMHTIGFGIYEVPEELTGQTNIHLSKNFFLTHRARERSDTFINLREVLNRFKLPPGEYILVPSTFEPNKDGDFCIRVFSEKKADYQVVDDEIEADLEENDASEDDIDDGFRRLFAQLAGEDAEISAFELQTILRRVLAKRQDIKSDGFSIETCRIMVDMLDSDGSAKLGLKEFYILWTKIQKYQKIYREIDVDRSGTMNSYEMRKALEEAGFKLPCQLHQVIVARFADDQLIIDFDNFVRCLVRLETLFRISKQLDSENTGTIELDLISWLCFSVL

[12] = target: T3, Ubiquitin-conjugating enzyme E2 N (Homo sapiens, UniProt P61088); type: functional
T3 sequence (P61088 whole entry): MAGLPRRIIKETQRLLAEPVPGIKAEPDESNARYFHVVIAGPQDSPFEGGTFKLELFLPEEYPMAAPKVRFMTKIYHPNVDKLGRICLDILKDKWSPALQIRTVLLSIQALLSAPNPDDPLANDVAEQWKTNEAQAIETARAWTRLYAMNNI

[13] = target: T3, Ubiquitin-conjugating enzyme E2 N; type: functional; remark: listed apart in the source
Bcl-2-related protein A1 = target: T4, Bcl-2-related protein A1 (Mus musculus, UniProt Q07440); type: functional;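 note: confirmatory dose–response counterscreen on Bfl-1, used to check hits from a UBC13 polyubiquitin inhibitor campaign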
T4 sequence (Q07440 whole entry): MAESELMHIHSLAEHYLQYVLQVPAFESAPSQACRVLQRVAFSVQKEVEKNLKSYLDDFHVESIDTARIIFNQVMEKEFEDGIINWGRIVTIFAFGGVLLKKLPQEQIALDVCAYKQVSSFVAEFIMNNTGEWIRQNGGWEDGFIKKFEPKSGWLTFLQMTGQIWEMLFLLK

[14] = target: T5, Heat shock factor protein 1 (Mus musculus, UniProt P38532); assay: decrease of HSF1-responsive luciferase luminescence – cell-based, NIH3T3, dose retest, confirmation (AID 2382); type: functional;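 note: NIH3T3 fibroblasts with HSF1-driven luciferase reporter stressed by proteasome inhibitor MG132; luminescence from HSF1-driven luciferase expression after 8 hours of MG132 stress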
T5 sequence (P38532 whole entry): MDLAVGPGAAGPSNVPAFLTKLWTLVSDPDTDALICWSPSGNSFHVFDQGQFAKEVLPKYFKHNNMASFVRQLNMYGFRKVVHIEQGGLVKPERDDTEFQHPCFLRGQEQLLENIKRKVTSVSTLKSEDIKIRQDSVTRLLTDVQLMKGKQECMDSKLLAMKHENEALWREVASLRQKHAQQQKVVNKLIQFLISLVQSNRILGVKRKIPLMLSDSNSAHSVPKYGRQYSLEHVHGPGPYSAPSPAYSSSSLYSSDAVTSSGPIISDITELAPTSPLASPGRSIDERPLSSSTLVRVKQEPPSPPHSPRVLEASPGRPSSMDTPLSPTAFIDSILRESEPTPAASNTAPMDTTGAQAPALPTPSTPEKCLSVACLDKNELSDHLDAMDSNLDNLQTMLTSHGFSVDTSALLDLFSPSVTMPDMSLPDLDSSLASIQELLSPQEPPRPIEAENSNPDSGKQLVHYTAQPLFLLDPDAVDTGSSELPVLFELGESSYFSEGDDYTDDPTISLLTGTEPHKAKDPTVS

[15] = target: T6, Alkaline phosphatase, tissue-nonspecific isozyme (Homo sapiens, UniProt P05186); assay: TNAP enzyme inhibition by screening hits, dose response, selectivity assay for mouse IAP inhibitor project, biochemical, human TNAP, uHTS hits (AID 488906); type: functional
T6 sequence (P05186 whole entry): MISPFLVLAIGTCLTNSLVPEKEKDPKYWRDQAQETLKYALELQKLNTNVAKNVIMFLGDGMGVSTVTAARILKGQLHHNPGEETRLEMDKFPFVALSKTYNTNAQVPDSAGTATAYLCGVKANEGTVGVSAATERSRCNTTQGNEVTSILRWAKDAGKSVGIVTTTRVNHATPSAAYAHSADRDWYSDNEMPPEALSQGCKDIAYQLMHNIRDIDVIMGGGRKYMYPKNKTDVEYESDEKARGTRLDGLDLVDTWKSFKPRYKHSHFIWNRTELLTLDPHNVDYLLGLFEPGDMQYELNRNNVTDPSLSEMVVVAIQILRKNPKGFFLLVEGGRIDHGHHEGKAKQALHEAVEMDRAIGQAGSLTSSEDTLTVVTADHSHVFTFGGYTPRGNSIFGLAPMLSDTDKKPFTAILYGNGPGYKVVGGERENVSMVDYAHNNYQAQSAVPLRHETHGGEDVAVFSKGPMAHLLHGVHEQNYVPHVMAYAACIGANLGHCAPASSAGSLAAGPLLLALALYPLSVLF

[16] = target: Intestinal-type alkaline phosphatase (Mus musculus, UniProt P24822); assay: PubChem AID 488785; type: functional
Intestinal-type alkaline phosphatase (Mus musculus, UniProt P24822), sequence (P24822 whole entry): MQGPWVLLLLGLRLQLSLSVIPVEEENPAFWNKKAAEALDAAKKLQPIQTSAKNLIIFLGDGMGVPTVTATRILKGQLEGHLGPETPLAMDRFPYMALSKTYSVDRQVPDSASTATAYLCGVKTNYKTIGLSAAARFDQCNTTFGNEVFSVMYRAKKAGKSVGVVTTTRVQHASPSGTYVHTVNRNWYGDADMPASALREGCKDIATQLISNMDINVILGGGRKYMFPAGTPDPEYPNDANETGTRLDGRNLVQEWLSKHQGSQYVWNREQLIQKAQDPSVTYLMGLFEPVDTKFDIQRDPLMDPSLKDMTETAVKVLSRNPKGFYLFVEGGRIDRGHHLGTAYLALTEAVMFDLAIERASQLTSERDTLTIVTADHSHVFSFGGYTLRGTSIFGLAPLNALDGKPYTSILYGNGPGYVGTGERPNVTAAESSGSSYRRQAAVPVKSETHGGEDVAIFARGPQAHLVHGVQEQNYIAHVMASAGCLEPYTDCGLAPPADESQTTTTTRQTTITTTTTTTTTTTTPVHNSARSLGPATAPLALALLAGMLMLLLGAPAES

[17] = target: Intestinal-type alkaline phosphatase (Homo sapiens, UniProt P09923); assay: inhibition of human intestinal alkaline phosphatase – biochemical, dose response (AID 488876); type: functional
Intestinal-type alkaline phosphatase (Homo sapiens, UniProt P09923), sequence (P09923 whole entry): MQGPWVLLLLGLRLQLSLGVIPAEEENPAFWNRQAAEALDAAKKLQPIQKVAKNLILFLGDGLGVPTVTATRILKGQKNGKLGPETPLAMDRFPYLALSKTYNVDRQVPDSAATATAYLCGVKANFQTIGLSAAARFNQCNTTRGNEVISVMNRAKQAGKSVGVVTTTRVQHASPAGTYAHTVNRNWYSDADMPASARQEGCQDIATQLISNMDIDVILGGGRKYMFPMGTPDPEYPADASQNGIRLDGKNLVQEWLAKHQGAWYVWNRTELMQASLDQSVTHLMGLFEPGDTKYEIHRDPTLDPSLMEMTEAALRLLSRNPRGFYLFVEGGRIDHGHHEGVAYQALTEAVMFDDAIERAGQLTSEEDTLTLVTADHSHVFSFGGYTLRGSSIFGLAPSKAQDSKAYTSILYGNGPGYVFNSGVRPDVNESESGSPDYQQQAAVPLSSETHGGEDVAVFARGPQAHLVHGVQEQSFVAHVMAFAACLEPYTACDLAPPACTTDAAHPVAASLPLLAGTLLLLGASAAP

CN1C/C(=C/c2cccnc2)C(=O)/C(=C/c2cccnc2)C1
AC50 [1]: 5.31 µM (active) | CC50 [2]: 6.26 µM (active) | IC50 (cells): 16.8 µM (active) | CC50 [3]: 8.54 µM (active) | CC50 [4]: > 20 µM (active)

O=C(CCl)Nc1ccccc1Sc1ccc(Cl)cc1
IC50 (HEK293 [5]): 9.91 µM (active) | IC50 (HEK293 [6]): > 20 µM (inactive) | EC50 (HEK293 [7]): 7.79 µM (active) | IC50 (HEK293 [8]): > 20 µM (inactive) | EC50 [9]: 6.69 µM (active) | IC50 (HEK293 [10]): 4.56 µM (active)

O=C(CCCCCN1C(=O)c2ccccc2C1=O)Nc1ccc(S(=O)(=O)N2CCCCC2)cc1
IC50 [11]: 2.38 µM (not active) | IC50 [12]: 0.982 µM (active) | IC50 [13]: 1.34 µM (active) | IC50 (Bcl-2-related protein A1): > 20 µM (inactive)

CCOC(=O)c1cc(-c2ccncc2)nc2c1c(C)nn2C
IC50 [12]: 11.3 µM (active) | IC50 [13]: 5.32 µM (active) | IC50 (Bcl-2-related protein A1): > 20 µM (inactive)

Oc1[nH]c2ccccc2c1N=NC(S)=NCC1CCCO1 (stereo not given)
EC50 [14]: > 195 µM (not active) | IC50 [12]: 1.73 µM (active) | IC50 [13]: 0.967 µM (active) | IC50 (Bcl-2-related protein A1): > 20 µM (inactive)

NS(=O)(=O)c1ccc(NC(=S)NC(=O)/C=C/c2ccco2)cc1
IC50 [15]: > 100 µM (inactive) | IC50 [16]: 1.87 µM (active) | IC50 [17]: 8.09 µM (active)
